The record followed here is patent US20170166598A1, “HETEROARYL COMPOUNDS FOR KINASE INHIBITION” (ARIAD PHARMACEUTICALS, INC., priority 2014, published 2017).

Holding throughout (type): cell-based
For assay [1], the target named is T1, human EGFR exon 20 insertion ASV (V769_D770insASV) (Homo sapiens, UniProt P00533, INS769ASV).
T1 construct: expressed in transfected cells; host or cells: Ba/F3 (murine pro-B) cells transduced with lentivirus from pLVX-IRES puro
Kind of assay: Ba/F3-EGFR-Exon20-ASV cell anti-proliferative assay (CellTiter 96 MTS, 72 h). As to conditions: Ba/F3-EGFR-Exon20-ASV cells. The procedure:
(§1) An expression vector, pLVX-IRES puro (Clontech) coding for human EGFR exon 20 insertions NPG (H773_V774insNPG) or ASV (V769_D770insASV), was transfected into HEK293 cells by the Trans-Lentiviral ORF Packaging System (Thermo Scientific), to produce virus encoding EGFR exon 20 insertions. Ba/F3 (DSMZ) cells maintained in RPMI 1640 medium supplemented with 10% fetal bovine serum, 200 μM L-glutamine/l 200 μg/mL penicillin/200 μg/mL streptomycin (Life Technology) and 10 ng/mL IL-3 (R&D system), were infected by EGFR Exon20 virus and subsequently selected by puromycin (Life Technology) selection and IL-3 depletion. […] The anti-proliferative activity of compounds were determined as follows: BaF3-EGFR-Exon20 cells (NPG or ASV) seeded in 96 well plates (2500 cells/well) were treated with test compound (dissolved in DMSO) at a series of concentrations (4-fold dilution, top concentration: 10,000 nM). The plates were incubated for 72 h in a 37° C. incubator with 5% CO2, and the number of viable cells in each well were measured indirectly by CellTiter 96® Aqueous One Solution Cell Proliferation Assay (Promega) This assay is a colorimetric method for determining the number of viable cells through measurement of their metabolic activity by detection of enzymatic conversion of tetrazolium salts into blue formazan derivatives. Reagent (20 μL) was added into each well, and the plates were returned to the incubator for 2 h. The absorbance in each well was then measured at 490 nm using an Envision plate reader (Perkin Elmer).

The target in assay [2] is T2, Her2 exon 20 YVMA insertion (A775_G776ins YVMA) (Homo sapiens, UniProt P04626, INS775YVMA).
T2 construct: expressed in transfected cells; host or cells: Ba/F3 (murine pro-B) cells transduced with lentivirus from pLVX-IRES puro
In words: Ba/F3-Her2 Exon20 YVMA cell anti-proliferative assay (CellTiter 96 MTS, 72 h). The following applies: Ba/F3-Her2 Exon20 YVMA cells. From the text: A compound's ability in selectively inhibiting Her2 exon 20 YVMA insertion mutations can be assessed using Ba/F3 cells, a murine pro-B cell line, which have been transduced with Her2 Exon20 YVMA insertions. An expression vector, pLVX-IRES puro (Clontech) coding for […] (A775_G776ins YVMA), was transfected into HEK293 cells by the Trans-Lentiviral ORF Packaging System (Thermo Scientific), to produce virus encoding EGFR exon 20 insertions. Ba/F3 (DSMZ) cells maintained in RPMI 1640 medium supplemented with 10% fetal bovine serum, 200 μM L-glutamine/200 μg/mL penicillin/200 μg/mL streptomycin (Life Technology) and 10 ng/mL IL-3 (R&D system), were infected by EGFR Exon20 virus and subsequently selected by puromycin (Life Technology) selection and IL-3 depletion. Ba/F3 cells expressing Her2 Exon20 YVMA insertions (named Ba/F3-Her2 Exon20 YVMA) can proliferate in the absence of IL-3. The anti-proliferative activity of compounds was determined as follows: BaF3-Her2 Exon20 YVMA cells seeded in 96 well plates (2500 cells/well) were treated with test compound (dissolved in DMSO) at a series of concentrations (4-fold dilution, top concentration: 10,000 nM). The plates were incubated for 72 h in a 37° C. incubator with 5% CO2, and the number of viable cells in each well were measured indirectly by CellTiter 96@ Aqueous One Solution Cell Proliferation Assay (Promega; this assay is a colorimetric method for determining the number of viable cells through measurement of their metabolic activity by detection of enzymatic conversion of tetrazolium salts into blue formazan derivatives). Reagent (20 μL) was added into each well, and the plates were returned to the incubator for 2 h. The absorbance in each well was then measured at 490 nm using an Envision plate reader (Perkin Elmer).

The target in assay [3] is T3, human EGFR E746-A750 deletion and T790M Mutation (Homo sapiens, UniProt P00533, DEL746-750/T790M).
T3 construct: expressed in transfected cells; host or cells: Ba/F3 (murine pro-B) cells transduced with lentivirus from pLVX-IRES puro
In words: Ba/F3-EGFR-Del/T790M cell anti-proliferative assay (CellTiter 96 MTS, 72 h). The following applies: Ba/F3-EGFR-Del/T790M cells. The procedure: An expression vector, pLVX-IRES puro (Clontech) coding for human EGFR E746-A750 deletion and T790M Mutation, was transfected into HEK293 cells by the Trans-Lentiviral ORF Packaging System (Thermo Scientific), to produce virus encoding EGFR exon 19 deletion and T790M mutations. Ba/F3 (DSMZ) cells maintained in RPMI 1640 medium supplemented with 10% fetal bovine serum, 200 μM L-glutamine/200 μg/mL penicillin/200 μg/mL streptomycin (Life Technology) and 10 ng/mL IL-3 (R&D system), were infected by EGFR E746-A750 deletion and T790M Mutation virus and subsequently selected by puromycin (Life Technology) selection and IL-3 depletion. […] The anti-proliferative activity of compounds was determined as follows: BaF3-EGFR-Del/T790M cells seeded in 96 well plates (2500 cells/well) were treated with test compound (dissolved in DMSO) at a series of concentrations (4-fold dilution, top concentration: 10,000 nM). The plates were incubated for 72 h in a 37° C. incubator with 5% CO2, and the number of viable cells in each well were measured indirectly by CellTiter 96® Aqueous One Solution Cell Proliferation Assay (Promega; this assay is a colorimetric method for determining the number of viable cells through measurement of their metabolic activity by detection of enzymatic conversion of tetrazolium salts into blue formazan derivatives). Reagent (20 μL) was added into each well, and the plates were returned to the incubator for 2 h. The absorbance in each well was then measured at 490 nm using an Envision plate reader (Perkin Elmer).

For assay [4], the target named is T4, human EGFR exon 20 insertion NPG (H773_V774insNPG) (Homo sapiens, UniProt P00533, INS772GNP).
T4 construct: expressed in transfected cells; host or cells: Ba/F3 (murine pro-B) cells transduced with lentivirus from pLVX-IRES puro
Kind of assay: Ba/F3-EGFR-Exon20-NPG cell anti-proliferative assay (CellTiter 96 MTS, 72 h). The following applies: Ba/F3-EGFR-Exon20-NPG cells. The procedure:
as §1

T2 sequence (P04626 with tags, fused parts or gaps INS775YVMA): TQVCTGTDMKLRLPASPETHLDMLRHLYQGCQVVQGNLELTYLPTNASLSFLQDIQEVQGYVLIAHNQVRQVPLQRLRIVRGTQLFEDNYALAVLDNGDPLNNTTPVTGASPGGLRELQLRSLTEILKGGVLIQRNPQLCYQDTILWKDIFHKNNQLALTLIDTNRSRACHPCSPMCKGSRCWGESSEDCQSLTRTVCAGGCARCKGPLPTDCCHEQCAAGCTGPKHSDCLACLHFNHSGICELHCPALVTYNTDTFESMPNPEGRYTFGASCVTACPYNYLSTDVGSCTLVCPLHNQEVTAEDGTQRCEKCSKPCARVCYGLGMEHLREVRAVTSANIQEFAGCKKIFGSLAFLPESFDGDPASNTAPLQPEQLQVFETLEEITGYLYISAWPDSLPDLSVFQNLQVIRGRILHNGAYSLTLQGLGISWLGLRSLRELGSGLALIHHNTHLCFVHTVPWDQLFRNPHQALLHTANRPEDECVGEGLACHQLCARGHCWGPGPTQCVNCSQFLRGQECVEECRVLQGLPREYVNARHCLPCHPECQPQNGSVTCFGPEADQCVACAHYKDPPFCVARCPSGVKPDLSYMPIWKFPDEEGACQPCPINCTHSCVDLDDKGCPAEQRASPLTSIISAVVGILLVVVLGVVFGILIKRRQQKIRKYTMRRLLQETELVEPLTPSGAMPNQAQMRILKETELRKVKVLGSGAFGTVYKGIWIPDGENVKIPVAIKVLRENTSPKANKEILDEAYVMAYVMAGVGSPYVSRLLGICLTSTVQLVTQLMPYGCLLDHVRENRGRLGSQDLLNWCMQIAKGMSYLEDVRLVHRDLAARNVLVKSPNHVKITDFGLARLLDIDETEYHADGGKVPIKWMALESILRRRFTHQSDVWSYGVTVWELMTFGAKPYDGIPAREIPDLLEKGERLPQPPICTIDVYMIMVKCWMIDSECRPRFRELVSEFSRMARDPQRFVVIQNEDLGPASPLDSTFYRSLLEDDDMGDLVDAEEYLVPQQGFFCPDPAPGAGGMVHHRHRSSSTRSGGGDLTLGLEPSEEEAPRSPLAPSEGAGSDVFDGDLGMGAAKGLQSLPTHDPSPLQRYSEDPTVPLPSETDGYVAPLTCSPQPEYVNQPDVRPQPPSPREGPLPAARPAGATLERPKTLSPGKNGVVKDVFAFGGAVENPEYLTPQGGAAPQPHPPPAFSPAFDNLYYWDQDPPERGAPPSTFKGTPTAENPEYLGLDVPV
T1 sequence (P00533 with tags, fused parts or gaps INS769ASV): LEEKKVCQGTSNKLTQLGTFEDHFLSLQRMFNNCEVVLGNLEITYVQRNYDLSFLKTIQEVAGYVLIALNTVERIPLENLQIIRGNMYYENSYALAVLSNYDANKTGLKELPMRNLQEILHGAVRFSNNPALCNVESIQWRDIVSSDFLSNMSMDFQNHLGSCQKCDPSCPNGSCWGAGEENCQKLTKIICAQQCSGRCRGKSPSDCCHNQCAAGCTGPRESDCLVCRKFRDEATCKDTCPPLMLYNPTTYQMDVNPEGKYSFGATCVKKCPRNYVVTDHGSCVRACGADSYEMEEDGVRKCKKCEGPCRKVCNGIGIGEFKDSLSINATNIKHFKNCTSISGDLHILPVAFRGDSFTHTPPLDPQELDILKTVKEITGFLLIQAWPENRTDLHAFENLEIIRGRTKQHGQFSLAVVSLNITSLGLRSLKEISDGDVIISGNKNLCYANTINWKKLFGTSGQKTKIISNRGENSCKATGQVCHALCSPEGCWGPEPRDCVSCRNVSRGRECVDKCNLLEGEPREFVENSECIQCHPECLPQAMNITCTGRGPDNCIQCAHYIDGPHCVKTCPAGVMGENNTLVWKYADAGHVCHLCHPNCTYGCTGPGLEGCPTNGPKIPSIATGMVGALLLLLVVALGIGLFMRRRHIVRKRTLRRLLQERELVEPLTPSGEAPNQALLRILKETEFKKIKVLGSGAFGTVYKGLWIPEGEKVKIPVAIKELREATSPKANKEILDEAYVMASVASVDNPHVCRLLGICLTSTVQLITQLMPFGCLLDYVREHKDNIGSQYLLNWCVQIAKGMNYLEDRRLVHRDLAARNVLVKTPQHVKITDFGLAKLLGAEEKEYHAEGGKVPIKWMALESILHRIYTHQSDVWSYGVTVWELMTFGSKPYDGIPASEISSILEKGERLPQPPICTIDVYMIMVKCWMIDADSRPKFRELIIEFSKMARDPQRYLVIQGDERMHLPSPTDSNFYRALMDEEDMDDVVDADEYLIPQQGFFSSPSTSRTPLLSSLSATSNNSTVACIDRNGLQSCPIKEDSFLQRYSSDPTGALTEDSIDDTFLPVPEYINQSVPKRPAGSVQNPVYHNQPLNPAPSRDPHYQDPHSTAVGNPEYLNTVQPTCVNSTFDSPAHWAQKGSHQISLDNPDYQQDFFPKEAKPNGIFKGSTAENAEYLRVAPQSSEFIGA
T4 sequence (P00533 with tags, fused parts or gaps INS772GNP): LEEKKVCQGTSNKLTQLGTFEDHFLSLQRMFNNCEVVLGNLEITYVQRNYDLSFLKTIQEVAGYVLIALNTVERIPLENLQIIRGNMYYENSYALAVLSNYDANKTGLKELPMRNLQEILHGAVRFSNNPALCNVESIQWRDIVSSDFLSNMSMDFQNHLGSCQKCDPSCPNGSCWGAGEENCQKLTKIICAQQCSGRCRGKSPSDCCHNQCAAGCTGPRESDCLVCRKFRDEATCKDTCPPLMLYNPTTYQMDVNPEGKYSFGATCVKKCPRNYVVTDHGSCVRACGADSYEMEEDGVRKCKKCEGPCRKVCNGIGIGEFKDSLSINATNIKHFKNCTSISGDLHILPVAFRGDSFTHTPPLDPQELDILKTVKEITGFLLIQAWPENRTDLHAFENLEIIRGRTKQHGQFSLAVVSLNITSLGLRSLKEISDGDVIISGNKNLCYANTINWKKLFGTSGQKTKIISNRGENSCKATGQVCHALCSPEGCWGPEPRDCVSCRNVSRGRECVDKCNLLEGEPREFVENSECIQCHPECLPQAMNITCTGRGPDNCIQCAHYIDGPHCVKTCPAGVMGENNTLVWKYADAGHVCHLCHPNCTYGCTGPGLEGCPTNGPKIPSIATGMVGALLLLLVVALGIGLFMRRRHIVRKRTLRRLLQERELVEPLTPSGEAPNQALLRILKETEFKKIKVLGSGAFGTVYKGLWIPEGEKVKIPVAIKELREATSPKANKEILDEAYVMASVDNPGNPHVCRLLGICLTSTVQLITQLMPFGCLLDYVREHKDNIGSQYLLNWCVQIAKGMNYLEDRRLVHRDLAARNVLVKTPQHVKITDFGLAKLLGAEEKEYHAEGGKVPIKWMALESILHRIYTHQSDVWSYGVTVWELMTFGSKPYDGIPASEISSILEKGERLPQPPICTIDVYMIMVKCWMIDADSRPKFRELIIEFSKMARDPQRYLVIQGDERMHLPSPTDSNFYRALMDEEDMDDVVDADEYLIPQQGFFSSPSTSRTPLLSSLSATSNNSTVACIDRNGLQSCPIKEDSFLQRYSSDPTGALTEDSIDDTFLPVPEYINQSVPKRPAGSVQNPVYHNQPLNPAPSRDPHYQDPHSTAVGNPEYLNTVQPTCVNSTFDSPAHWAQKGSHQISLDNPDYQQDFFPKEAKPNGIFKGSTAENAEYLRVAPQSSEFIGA
T3 sequence (P00533 with tags, fused parts or gaps DEL746-750/T790M): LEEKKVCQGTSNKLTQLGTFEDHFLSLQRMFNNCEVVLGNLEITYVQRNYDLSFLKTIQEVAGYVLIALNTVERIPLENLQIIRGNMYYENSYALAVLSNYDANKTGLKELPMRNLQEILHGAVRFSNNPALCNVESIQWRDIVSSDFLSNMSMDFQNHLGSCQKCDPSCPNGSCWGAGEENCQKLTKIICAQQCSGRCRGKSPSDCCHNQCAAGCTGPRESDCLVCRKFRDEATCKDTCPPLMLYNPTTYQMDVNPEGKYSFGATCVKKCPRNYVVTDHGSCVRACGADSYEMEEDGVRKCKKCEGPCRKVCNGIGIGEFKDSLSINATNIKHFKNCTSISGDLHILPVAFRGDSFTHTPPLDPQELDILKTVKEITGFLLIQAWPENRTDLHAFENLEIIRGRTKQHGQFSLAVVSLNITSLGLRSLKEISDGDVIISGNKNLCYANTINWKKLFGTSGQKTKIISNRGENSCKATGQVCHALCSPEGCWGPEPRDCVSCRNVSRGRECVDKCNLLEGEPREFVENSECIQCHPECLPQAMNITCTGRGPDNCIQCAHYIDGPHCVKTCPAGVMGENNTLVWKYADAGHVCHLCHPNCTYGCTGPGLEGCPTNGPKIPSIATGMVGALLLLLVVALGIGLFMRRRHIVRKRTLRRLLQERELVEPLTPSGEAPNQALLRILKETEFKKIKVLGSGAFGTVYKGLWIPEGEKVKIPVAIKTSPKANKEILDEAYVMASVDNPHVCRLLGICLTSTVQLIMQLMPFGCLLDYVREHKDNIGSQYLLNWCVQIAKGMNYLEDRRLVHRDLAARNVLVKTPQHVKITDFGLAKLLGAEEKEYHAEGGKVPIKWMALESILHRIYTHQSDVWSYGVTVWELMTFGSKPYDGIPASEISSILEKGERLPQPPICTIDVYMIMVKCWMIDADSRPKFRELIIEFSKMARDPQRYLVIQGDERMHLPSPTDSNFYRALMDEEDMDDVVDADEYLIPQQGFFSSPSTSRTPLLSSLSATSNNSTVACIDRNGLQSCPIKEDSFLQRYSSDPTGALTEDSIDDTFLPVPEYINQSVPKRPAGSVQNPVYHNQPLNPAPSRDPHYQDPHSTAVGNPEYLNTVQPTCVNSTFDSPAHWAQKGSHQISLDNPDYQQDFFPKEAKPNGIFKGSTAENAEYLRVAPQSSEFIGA

The IC50 is the concentration at which inhibition is half-maximal. For `C=CC(=O)Nc1cc(Nc2ncc(C(=O)OCC)c(-c3cn4c5c(cccc35)CCC4)n2)c(OC)cc1N(C)CCN(C)C` [Example 69, ethyl 2-((5-acrylamido-4-((2-(dimethylamino)ethyl)(methyl)amino)-2-methoxyphenyl)amino)-4-(5,6-dihydro-4H-pyrrolo[3,2,1-ij]quinolin-1-yl)pyrimidine-5-carboxylate], the IC50 in assay [1], in assay [2] and in assay [4] was less than 100 nM in each case. Besides, the “EGFR exon 19 deletion and exon 20 T790M mutation IC50” value in assay [3] is “A (IC50 value for the indicated mutant below about 100 nM)”.

`[2H]C([2H])([2H])N(CCN(C)c1cc(OC)c(Nc2ncc(Cl)c(-c3cn4c5c(cccc35)OCC4)n2)cc1NC(=O)C=C)C([2H])([2H])[2H]` [Example 7, N-(2-((2-(bis(methyl-d3)amino)ethyl)(methyl)amino)-5-((5-chloro-4-(2,3-dihydro-[1,4]oxazino[2,3,4-hi]indol-6-yl)pyrimidin-2-yl)amino)-4-methoxyphenyl)acrylamide]: the IC50 in assay [1], in assay [2] and in assay [4] was less than 100 nM each time. For the same compound, the “EGFR exon 19 deletion and exon 20 T790M mutation IC50” value in assay [3] is on record as “A (IC50 value for the indicated mutant below about 100 nM)”.

In the case of `C=CC(=O)Nc1cc(Nc2ncc(C(=O)O)c(-c3cn4c5c(cccc35)CCC4)n2)c(OC)cc1N(C)CCN(C)C` [Example 45, 2-((5-acrylamido-4-((2-(dimethylamino)ethyl)(methyl)amino)-2-methoxyphenyl)amino)-4-(5,6-dihydro-4H-pyrrolo[3,2,1-ij]quinolin-1-yl)pyrimidine-5-carboxylic acid], the concentration for half-maximal inhibition (IC50) in assay [1], in assay [2] and in assay [4] was greater than 1000 nM each time. Also, the “EGFR exon 19 deletion and exon 20 T790M mutation IC50” value in assay [3] was “D (IC50 value for the indicated mutant greater than about 1 μM)”.

`C=CC(=O)Nc1cc(Nc2ncc(-c3ncco3)c(-c3cn4c5c(cccc35)CCC4)n2)c(OC)cc1N(C)CCN(C)C` [Example 62, N-(5-((4-(5,6-dihydro-4H-pyrrolo[3,2,1-ij]quinolin-1-yl)-5-(oxazol-2-yl)pyrimidin-2-yl)amino)-2-((2-(dimethylamino)ethyl)(methyl)amino)-4-methoxyphenyl)acrylamide]: the half-maximal inhibitory concentration (IC50) in assay [1], in assay [2] and in assay [4] was less than 100 nM in each case. In addition, the “EGFR exon 19 deletion and exon 20 T790M mutation IC50” value in assay [3] is listed as “A (IC50 value for the indicated mutant below about 100 nM)”.

On to `C=CC(=O)Nc1cc(Nc2ncc(-c3nnco3)c(-c3cn4c5c(cccc35)CCC4)n2)c(OC)cc1N(C)CCN(C)C` [Example 71, N-(5-((4-(5,6-dihydro-4H-pyrrolo[3,2,1-ij]quinolin-1-yl)-5-(1,3,4-oxadiazol-2-yl)pyrimidin-2-yl)amino)-2-((2-(dimethylamino)ethyl)(methyl)amino)-4-methoxyphenyl)acrylamide], for which the IC50 in assay [1], in assay [2] and in assay [4] was less than 100 nM in each case. Further, the “EGFR exon 19 deletion and exon 20 T790M mutation IC50” value in assay [3] was “A (IC50 value for the indicated mutant below about 100 nM)”.

Turning to `C=CC(=O)Nc1cc(Nc2nccc(-c3c(N4CCC(O)C4)n4c5c(cccc35)CCC4)n2)c(OC)cc1N(C)CCN(C)C` (stereo not shown) [Example 61, N-(2-((2-(dimethylamino)ethyl)(methyl)amino)-5-((4-(2-(3-hydroxypyr4rolidin-1-yl)5,6-dihydro-4H-pyrrolo[3,2,1-ij]quinolin-1-yl)pyrimidin-2-yl)amino)-4-methoxyphenyl)acrylamide], the IC50 in assay [1], in assay [2] and in assay [4] was less than 100 nM throughout. Further, the “EGFR exon 19 deletion and exon 20 T790M mutation IC50” value in assay [3] was “A (IC50 value for the indicated mutant below about 100 nM)”.

For `C=CC(=O)Nc1cc(Nc2ncc(/C=C/C#N)c(-c3cn4c5c(cccc35)CCC4)n2)c(OC)cc1N(C)CCN(C)C` [Example 42, (E)-N-(5-((5-(2-cyanovinyl)-4-(5,6-dihydro-4H-pyrrolo[3,2,1-ij]quinolin-1-yl)pyrimidin-2-yl)amino)-2-((2-(dimethylamino)ethyl)(methyl)amino)-4-methoxyphenyl)acrylamide], the concentration for half-maximal inhibition (IC50) in assay [1], in assay [2] and in assay [4] was less than 100 nM throughout. The “EGFR exon 19 deletion and exon 20 T790M mutation IC50” value in assay [3] is “A (IC50 value for the indicated mutant below about 100 nM)”.

For `C=CC(=O)Nc1cc(Nc2ncc(Cl)c(-c3cn4c5c(cccc35)CCC4)n2)c(CC)cc1N(C)CCN(C)C` [Example 18, N-(5-((5-chloro-4-(5,6-dihydro-4H-pyrrolo[3,2,1-ij]quinolin-1-yl)pyrimidin-2-yl)amino)-2-((2-(dimethylamino)ethyl)(methyl)amino)-4-ethylphenyl)acrylamide], the half-maximal inhibitory concentration (IC50) was less than 100 nM in assay [1], 100 to 500 nM in assay [2] and less than 100 nM in assay [4]. Moreover, in assay [3], the “EGFR exon 19 deletion and exon 20 T790M mutation IC50” value is reported as “A (IC50 value for the indicated mutant below about 100 nM)”.

Turning to `C=CC(=O)Nc1cc(Nc2ncc(F)c(-c3cn4c5c(cccc35)CCC4)n2)c(OC)cc1N(C)CCN(C)C` [Example 17, N-(5-((4-(5,6-dihydro-4H-pyrrolo[3,2,1-ij]quinolin-1-yl)-5-fluoropyrimidin-2-yl)amino)-2-((2-(dimethylamino)ethyl)(methyl)amino)-4-methoxyphenyl)acrylamide], the 50% inhibitory concentration (IC50) in assay [1] was 100 to 500 nM; in assay [2], 100 to 500 nM; in assay [4], less than 100 nM. The “EGFR exon 19 deletion and exon 20 T790M mutation IC50” value in assay [3] is on record as “A (IC50 value for the indicated mutant below about 100 nM)”.

In the case of `C=CC(=O)Nc1cc(Nc2ncc(C(=O)CC)c(-c3cn4c5c(cccc35)CCC4)n2)c(OC)cc1N(C)CCN(C)C` [Example 88], the IC50 in assay [1], in assay [2] and in assay [4] was less than 100 nM each time. Also, the “EGFR exon 19 deletion and exon 20 T790M mutation IC50” value in assay [3] is “A (IC50 value for the indicated mutant below about 100 nM)”.
